From patent US20250368649A1, “TETRAHYDROPYRIDOPYRIMIDINE PAN-KRAS INHIBITORS” (Mirati Therapeutics, Inc., priority 2022, published 2025)

Assays:
KRas G12R = KRas G12R (Homo sapiens, UniProt P01116, G12R); assay: biochemical; conditions: Binding to KRas (IC50 nM) G12R, TR-FRET displacement, KRas G12R
H358 cells = assay: Inhibition of KRas-mediated phosphorylation of ERK (Cisbio HTRF pERK), H358 cells; type: cell-based; conditions: Homo sapiens; for IC50: NCI-H358, 3 h, 3 hr compound incubation; for inhibition at 0.1 µM: NCI-H358, single point at 100 nM, 3 hrs compound incubation
KRas G12V = KRas G12V (Homo sapiens, UniProt P01116, G12V); assay: biochemical; conditions: Binding to KRas (IC50 nM) G12V, TR-FRET displacement, KRas G12V
KRas G12V, sequence (P01116 1-169 isoform P01116-2 G12V): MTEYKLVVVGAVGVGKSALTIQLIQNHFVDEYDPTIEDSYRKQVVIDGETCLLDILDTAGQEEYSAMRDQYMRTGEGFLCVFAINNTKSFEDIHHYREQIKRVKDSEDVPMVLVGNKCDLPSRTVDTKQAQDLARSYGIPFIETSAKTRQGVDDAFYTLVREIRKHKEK

H460 cells = assay: Inhibition of KRas-mediated phosphorylation of ERK (Cisbio HTRF pERK), H460 cells; type: cell-based; conditions: Homo sapiens, NCI-H460, 3 h, 3 hr compound incubation
KRas WT = KRas WT (Homo sapiens, UniProt P01116); assay: KRas binding assay (TR-FRET displacement), KRas WT; conditions: for inhibition at 0.01 µM: single point, 10 nM compound; for IC50: TR-FRET displacement
KRas WT, sequence (P01116 1-169 isoform P01116-2): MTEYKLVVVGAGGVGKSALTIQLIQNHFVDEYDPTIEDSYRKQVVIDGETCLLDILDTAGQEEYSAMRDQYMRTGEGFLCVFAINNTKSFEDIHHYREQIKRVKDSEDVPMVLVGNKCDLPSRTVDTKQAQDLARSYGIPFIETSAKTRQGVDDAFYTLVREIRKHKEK

HCT116 cells = assay: Inhibition of KRas-mediated phosphorylation of ERK (Cisbio HTRF pERK), HCT116 cells; type: cell-based; conditions: Homo sapiens, HCT-116, 3 h, 3 hr compound incubation
KRas G12S = KRas G12S (Homo sapiens, UniProt P01116, G12S); type: binding; conditions: for inhibition at 0.01 µM: single point, 10 nM compound, read-out: Binding to KRas (% inhibition at 10 nM) G12S; for IC50: TR-FRET displacement, read-out: Binding to KRas (IC50 nM) G12S
KRas G12S, sequence (P01116 1-169 isoform P01116-2 G12S): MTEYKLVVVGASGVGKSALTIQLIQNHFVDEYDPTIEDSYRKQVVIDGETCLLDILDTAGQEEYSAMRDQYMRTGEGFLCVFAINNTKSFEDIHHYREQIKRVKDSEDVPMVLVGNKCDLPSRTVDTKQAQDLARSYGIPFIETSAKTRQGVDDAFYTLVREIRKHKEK

ASPC1 cells = assay: Inhibition of KRas-mediated phosphorylation of ERK (Cisbio HTRF pERK), ASPC1 cells; type: cell-based; conditions: Homo sapiens, ASPC1, 3 h, AsPC-1 cells, 3 hr compound incubation
KRas G12A = KRas G12A (Homo sapiens, UniProt P01116, G12A); type: binding; conditions: single point, 10 nM compound, read-out: Binding to KRas (% inhibition at 10 nM) G12A
KRas G12A, sequence (P01116 1-169 isoform P01116-2 G12A): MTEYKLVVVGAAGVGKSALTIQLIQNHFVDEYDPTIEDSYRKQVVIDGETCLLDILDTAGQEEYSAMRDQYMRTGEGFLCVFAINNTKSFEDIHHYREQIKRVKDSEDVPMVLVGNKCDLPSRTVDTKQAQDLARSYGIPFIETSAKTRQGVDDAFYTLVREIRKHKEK

KRas G12D = KRas G12D (Homo sapiens, UniProt P01116, G12D); assay: biochemical; conditions: Binding to KRas (IC50 nM) G12D, TR-FRET displacement, KRas G12D
KRas G12D, sequence (P01116 1-169 isoform P01116-2 G12D): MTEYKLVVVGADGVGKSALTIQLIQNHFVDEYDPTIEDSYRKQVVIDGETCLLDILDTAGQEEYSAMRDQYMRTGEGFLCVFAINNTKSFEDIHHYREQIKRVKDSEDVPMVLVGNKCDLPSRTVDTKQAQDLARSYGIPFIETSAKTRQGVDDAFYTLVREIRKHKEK

KRas Q61H = KRas Q61H (Homo sapiens, UniProt P01116, Q61H); assay: KRas binding assay (TR-FRET displacement), KRas Q61H; conditions: single point, 10 nM compound
KRas Q61H, sequence (P01116 1-169 isoform P01116-2 Q61H): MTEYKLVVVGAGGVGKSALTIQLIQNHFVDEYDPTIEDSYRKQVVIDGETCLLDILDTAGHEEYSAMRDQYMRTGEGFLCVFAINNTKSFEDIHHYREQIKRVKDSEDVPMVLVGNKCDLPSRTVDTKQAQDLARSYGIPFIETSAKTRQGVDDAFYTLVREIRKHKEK

A549 cells = assay: Inhibition of KRas-mediated phosphorylation of ERK (Cisbio HTRF pERK), A549 cells; type: cell-based; conditions: Homo sapiens; for IC50: A549, 3 h, 3 hr compound incubation; for inhibition at 0.1 µM: single point at 100 nM, 3 hrs compound incubation
KRas G12C = KRas G12C (Homo sapiens, UniProt P01116, G12C); type: binding; conditions: for inhibition at 0.01 µM: single point, 10 nM compound, read-out: Binding to KRas (% inhibition at 10 nM) G12C; for IC50: TR-FRET displacement, read-out: Binding to KRas (IC50 nM) G12C
KRas G12C, sequence (P01116 1-169 isoform P01116-2 G12C): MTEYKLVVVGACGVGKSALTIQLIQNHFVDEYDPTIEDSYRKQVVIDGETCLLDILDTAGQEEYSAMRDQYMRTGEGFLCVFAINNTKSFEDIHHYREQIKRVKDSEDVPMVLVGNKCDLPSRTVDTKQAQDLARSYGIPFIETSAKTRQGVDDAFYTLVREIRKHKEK

PSN1 cells = assay: Inhibition of KRas-mediated phosphorylation of ERK (Cisbio HTRF pERK), PSN1 cells; type: cell-based; conditions: Homo sapiens, PSN1, 3 h
Summary of the method: (§1)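 On the first day, plate 6,000 cells into each well in RPMI medium with 10% fetal bovine serum.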

MKN1 cells = assay: Inhibition of KRas-mediated phosphorylation of ERK (Cisbio HTRF pERK), MKN1 cells; type: cell-based; conditions: Homo sapiens
Summary of the method: as §1

KRas G13D = KRas G13D (Homo sapiens, UniProt P01116, G13D); type: binding; conditions: single point, 10 nM compound, read-out: Binding to KRas (% inhibition at 10 nM) G13D
KRas G13D, sequence (P01116 1-169 isoform P01116-2 G13D): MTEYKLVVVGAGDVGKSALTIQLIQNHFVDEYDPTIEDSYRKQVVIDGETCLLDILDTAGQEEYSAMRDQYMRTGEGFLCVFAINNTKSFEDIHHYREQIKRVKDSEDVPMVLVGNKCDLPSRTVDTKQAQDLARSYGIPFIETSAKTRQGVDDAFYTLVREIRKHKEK

H727 cells = assay: Inhibition of KRas-mediated phosphorylation of ERK (Cisbio HTRF pERK), H727 cells; type: cell-based; conditions: Homo sapiens, NCI-H727, 3 h, 3 hr compound incubation
H2009 cells = assay: Inhibition of KRas-mediated phosphorylation of ERK (Cisbio HTRF pERK), H2009 cells; type: cell-based; conditions: Homo sapiens, NCI-H2009, 3 hr compound incubation
[1] = 3 hour compound incubation, Cisbio pERK HTRF
[2] = MKN-1, 3 hour compound incubation, Cisbio pERK HTRF
[3] = MKN-1, 3 hr compound incubation

KRas G12R, sequence (P01116 1-169 isoform P01116-2 G12R): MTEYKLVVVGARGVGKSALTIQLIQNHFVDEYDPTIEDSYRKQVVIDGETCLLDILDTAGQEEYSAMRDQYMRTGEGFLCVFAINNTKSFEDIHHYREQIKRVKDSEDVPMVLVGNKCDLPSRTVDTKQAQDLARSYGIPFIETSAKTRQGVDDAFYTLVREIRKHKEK

SMILES	IC50 (KRas G12R) [nM]	inhibition at 0.1 µM (H358 cells) [%]	IC50 (KRas G12V) [nM]	IC50 (H460 cells; Cisbio pERK HTRF) [nM]	inhibition at 0.01 µM (KRas WT) [%]	IC50 (HCT116 cells; Cisbio pERK HTRF) [nM]	inhibition at 0.01 µM (KRas G12S) [%]	IC50 (ASPC1 cells; Cisbio pERK HTRF) [nM]	inhibition at 0.01 µM (KRas G12A) [%]	IC50 (KRas G12D) [nM]	inhibition at 0.01 µM (KRas Q61H) [%]	inhibition at 0.1 µM (A549 cells) [%]	inhibition at 0.01 µM (KRas G12C) [%]	IC50 (PSN1 cells; [1]) [nM]	IC50 (MKN1 cells; [2]) [nM]	inhibition at 0.01 µM (KRas G13D) [%]	IC50 (H727 cells; Cisbio pERK HTRF) [nM]	IC50 (H358 cells) [nM]	IC50 (H460 cells) [nM]	IC50 (KRas WT) [nM]	further results
CCc1c(F)ccc2cc(O)cc(N3CCc4c(nc(OC[C@@]56CCCN5C[C@H](F)C6)nc4N4CCCn5nc(C(=O)N(CC)CC)cc5C4)C3)c12 [Example 390, N,N-diethyl-5-(7-(8-ethyl-7-fluoro-3-hydroxynaphthalen-1-yl)-2-(((2R,7aS)-2-fluorohexahydro-1H-pyrrolizin-7a-yl)methoxy)-5,6,7,8-tetrahydropyrido[3,4-d]pyrimidin-4-yl)-5,6,7,8-tetrahydro-4H-pyrazolo[1,5-a][1,4]diazepine-2-carboxamide]	< 2	98	< 2	15	95	42	98	1	95	< 2	97	79	99	3850	9.6	95	3	–	–	–	IC50 (H358 cells; Cisbio pERK HTRF): 1 nM; IC50 (A549 cells; Cisbio pERK HTRF): 5 nM
CCc1c(F)ccc2cc(O)cc(N3CCc4c(nc(OC[C@@]56CCCN5C[C@H](F)C6)nc4N4CCCn5nnc(Cl)c5C4)C3)c12 [Example 391, 4-(4-(3-chloro-7,8-dihydro-4H-[1,2,3]triazolo[1,5-a][1,4]diazepin-5(6H)-yl)-2-(((2R,7aS)-2-fluorohexahydro-1H-pyrrolizin-7a-yl)methoxy)-5,6-dihydropyrido[3,4-d]pyrimidin-7(8H)-yl)-5-ethyl-6-fluoronaphthalen-2-ol]	3	77	< 2	43	81	128	94	4	81	< 2	85	69	93	> 10000	57.6	86	26	–	–	–	–
CCc1c(F)ccc2cc(O)cc(N3CCc4c(nc(OC[C@@]56CCCN5C[C@H](F)C6)nc4N4CCCn5nc6c(c5C4)CCCN6)C3)c12 [Example 392, 5-ethyl-6-fluoro-4-(2-(((2R,7aS)-2-fluorohexahydro-1H-pyrrolizin-7a-yl)methoxy)-4-(3,4,8,9-tetrahydro-1H-pyrido[2′,3′:3,4]pyrazolo[1,5-a][1,4]diazepin-6(2H,5H,7H)-yl)-5,6-dihydropyrido[3,4-d]pyrimidin-7(8H)-yl)naphthalen-2-ol]	< 2	47	2	285	55	813	71	72	56	3	54	38	78	> 10000	111	50	136	–	–	–	–
CCc1c(F)ccc2cc(O)cc(N3CCc4c(nc(OC[C@@]56CCCN5C[C@H](F)C6)nc4N4CCCn5nc(NC)c(OC)c5C4)C3)c12 [Example 393, 5-ethyl-6-fluoro-4-(2-(((2R,7aS)-2-fluorohexahydro-1H-pyrrolizin-7a-yl)methoxy)-4-(3-methoxy-2-(methylamino)-7,8-dihydro-4H-pyrazolo[1,5-a][1,4]diazepin-5(6H)-yl)-5,6-dihydropyrido[3,4-d]pyrimidin-7(8H)-yl)naphthalen-2-ol]	4	83	5	72	60	235	72	59	66	4	60	41	83	> 10000	58.5	64	201	–	–	–	–
C[C@@]1(O)COCCN(c2nc(OC[C@@]34CCCN3C[C@H](F)C4)nc3c2CCN(c2ccc(F)c4sc(N)c(C#N)c24)C3)C1 [Example 710, 2-amino-7-fluoro-4-(2-(((2R,7aS)-2-fluorotetrahydro-1H-pyrrolizin-7a(5H)-yl)methoxy)-4-((S)-6-hydroxy-6-methyl-1,4-oxazepan-4-yl)-5,8-dihydropyrido[3,4-d]pyrimidin-7(6H)-yl)benzo[b]thiophene-3-carbonitrile]	–	–	60	–	–	–	–	–	–	57	–	–	–	–	–	–	–	484	813	52	IC50 (HCT116 cells): 1860 nM; IC50 (KRas G12S): 60 nM; IC50 (ASPC1 cells): 626 nM; IC50 (H2009 cells): 221 nM; IC50 (A549 cells): 1210 nM; IC50 (KRas G12C): 48 nM; IC50 (PSN1 cells; 3 hr compound incubation): > 10000 nM; IC50 (MKN1 cells; [3]): 75.9 nM; IC50 (H727 cells): 1110 nM
C[C@@]1(O)CCCN(c2nc(OC[C@@]34CCCN3C[C@H](F)C4)nc3c2CCN(c2ccc(F)c4sc(N)c(C#N)c24)C3)C1 [Example 711, 2-amino-7-fluoro-4-(2-(((2R,7aS)-2-fluorotetrahydro-1H-pyrrolizin-7a(5H)-yl)methoxy)-4-((R)-3-hydroxy-3-methylpiperidin-1-yl)-5,8-dihydropyrido[3,4-d]pyrimidin-7(6H)-yl)benzo[b]thiophene-3-carbonitrile]	–	–	21	–	–	–	–	–	–	17	–	–	–	–	–	–	–	2680	2520	10	IC50 (HCT116 cells): 7220 nM; IC50 (KRas G12S): 13 nM; IC50 (ASPC1 cells): 1940 nM; IC50 (H2009 cells): 424 nM; IC50 (A549 cells): 4820 nM; IC50 (KRas G12C): 19 nM; IC50 (PSN1 cells; 3 hr compound incubation): > 10000 nM; IC50 (MKN1 cells; [3]): 830 nM; IC50 (H727 cells): 7410 nM
C=C1CN2CCCC2(COc2nc3c(c(N4CCCC5(CNS(=O)(=O)N5)C4)n2)CCN(c2cc(O)cc4ccc(F)c(CC)c24)C3)C1 (stereo not shown) [Example 712, 7-(7-(8-ethyl-7-fluoro-3-hydroxynaphthalen-1-yl)-2-((2-methylenetetrahydro-1H-pyrrolizin-7a(5H)-yl)methoxy)-5,6,7,8-tetrahydropyrido[3,4-d]pyrimidin-4-yl)-2-thia-1,3,7-triazaspiro[4.5]decane 2,2-dioxide]	–	–	3	–	–	–	–	–	–	3	–	–	–	–	–	–	–	30	141	2	IC50 (HCT116 cells): 240 nM; IC50 (KRas G12S): < 2 nM; IC50 (ASPC1 cells): 70 nM; IC50 (H2009 cells): 19 nM; IC50 (A549 cells): 216 nM; IC50 (KRas G12C): 2 nM; IC50 (PSN1 cells; 3 hr compound incubation): 806 nM; IC50 (MKN1 cells; [3]): 1.4 nM; IC50 (H727 cells): 421 nM
